Experimental findings from patent US9284303B2, “Benzimidazole cannabinoid agonists bearing a substituted heterocyclic group” (priority 2006, dated 2016) are described below.

Like-named read-outs stand apart in the source and are kept apart here.

Test [1] deals with T1, human CB1 (hCB1) receptor (Homo sapiens, UniProt P21554).
T1 construct: expressed in transfected cells; host or cells: CHO-K1
The experiment in a line: Inhibition of forskolin-activated cAMP production upon activation of hCB1 (HTRF), CHO-K1 cells. Format: cell-based. As for the experimental part:
(§1) Functional activity of the test compounds was assessed by measuring their potency to inhibit forskolin-activated cAMP production upon activation of the human CB1 (hCB1) or human CB2 (hCB2) receptor through homogenous time resolved fluorescence (HTRF) assays.
CHO-K1 cells stably transfected with either hCB1 or hCB2 were grown up to 80-90% confluence in T175 Falcon flasks in DMEM/NUT MIX F-12 culture medium complemented with 2% Solution A (5.10^6 IU/l penicillin G, 5 g/l streptomycin sulphate, 5.5 g/l pyruvate, 14.6 g/l L-glutamine, 1M NaOH) and 10% foetal calf serum. Before the experiments, medium was removed, cells were washed with PBS/EDTA (140 mM NaCl, 1 mM Naz-EDTA, 8 mM Na2HPO4.2H2O, 8.5 mM KH2PO4, 2.7 mM KCl, 21 mM glucose), resuspended in stimulation buffer (HBSS 1x, IBMX 1 mM, Hepes 5 mM, MgCl2 10 mM, BSA 0.1%, pH 7.4). Cells were diluted to a concentration of 8.10^5 cell/ml for hCB1 experiments and 10^6 cells/ml for hCB2 experiments. Assays were performed using the cAMP Dynamic HTRF kit (CIS bio international, France) according to the recommendations of the manufacturer.
For CB1, each well of a 96 flat bottom black polystyrene assay plate (Costar) was filled with 25 μl stimulation buffer containing 6 μM forskolin and either test compound (in 2% DMSO), 2% DMSO or 2 μM CP55490 (in 2% DMSO). Then, 25 μl of the diluted cells was added (20,000 cells/well). After 30 minutes incubation in dark at room temperature, 25 μl cAMP-XL665 and 25 μl anti-cAMP cryptate (both at a final dilution of 1/80) was added to the cells.
After equilibration of the reaction mixtures for 1 to 24 hours in dark at room temperature, fluorescence was measured at 665 nm and 620 nm using a Discovery microplate fluorescence counter (Perkin Elmer), and the signal ratio of 665 nm/620 nm was calculated. The signal ratios of the test compounds were expressed relative to the signal ratios of the DMSO control (maximal signal ratio, no inhibition of cAMP) and CP55490 or WIN55212-2 for hCB1 and hCB2, respectively (minimal signal ratio, maximal inhibition of cAMP). From the dose response curves generated for each test compound, the dose at which 50% of the maximal inhibition of cAMP level is observed (EC50, expressed in the Tables as pEC50=−log(EC50) values) and the level of inhibition reached with 10 μM of the test compound compared to CP55490 (for hCB1) or WIN55212-2 (for hCB2) was calculated.
(In general: Cyclic AMP is a second messenger, typically raised through Gs and lowered through Gi signalling.)

The target in test [2] is T2, human CB2 (hCB2) receptor (Homo sapiens, UniProt P34972).
T2 construct: expressed in transfected cells; host or cells: CHO-K1
T2 sequence (P34972 whole entry): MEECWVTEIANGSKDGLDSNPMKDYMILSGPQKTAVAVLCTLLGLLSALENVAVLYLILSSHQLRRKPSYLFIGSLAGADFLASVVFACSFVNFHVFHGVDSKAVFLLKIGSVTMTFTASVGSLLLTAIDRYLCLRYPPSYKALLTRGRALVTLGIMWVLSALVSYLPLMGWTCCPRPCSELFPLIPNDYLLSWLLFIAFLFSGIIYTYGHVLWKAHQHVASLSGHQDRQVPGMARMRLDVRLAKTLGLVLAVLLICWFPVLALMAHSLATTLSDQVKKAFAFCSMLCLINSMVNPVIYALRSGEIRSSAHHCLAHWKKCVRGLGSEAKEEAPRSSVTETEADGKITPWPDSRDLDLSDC
Put plainly: Inhibition of forskolin-activated cAMP production upon activation of hCB2 (HTRF), CHO-K1 cells. Format: cell-based. The following applies: for ratio CB2 agonism over CB1 agonism: Table C-1, selectivity hCB2 over hCB1; for EC50: forskolin-activated cAMP, pEC50=-log(EC50). The method, then:
as §1
Before the experiments, medium was removed, cells were washed with PBS/EDTA (140 mM NaCl, 1 mM Naz-EDTA, 8 mM Na2HPO4.2H2O, 8.5 mM KH2PO4, 2.7 mM KCl, 21 mM glucose), resuspended in stimulation buffer (HBSS 1x, IBMX 1 mM, Hepes 5 mM, MgCl2 10 mM, BSA 0.1%, pH 7.4). Cells were diluted to a concentration of 8.10^5 cell/ml for hCB1 experiments and 10^6 cells/ml for hCB2 experiments. Assays were performed using the cAMP Dynamic HTRF kit (CIS bio international, France) according to the recommendations of the manufacturer.
Then, 20 μl of the diluted hCB2-CHO-K1 cells was added (20,000 cells/well). After 30 minutes incubation in dark at room temperature, 10 μl cAMP-XL665 and 10 μl anti-cAMP cryptate (both at a final dilution of 1/100) was added to the cells.

Setting [3] is: CB1 pEC50, hCB1-CHO-K1 cells, forskolin-activated cAMP, pEC50=-log(EC50).
Setting [4] is: hCB2-CHO-K1 cells, read-out: CB2 pEC50 (converted).

T1 sequence (P21554 whole entry): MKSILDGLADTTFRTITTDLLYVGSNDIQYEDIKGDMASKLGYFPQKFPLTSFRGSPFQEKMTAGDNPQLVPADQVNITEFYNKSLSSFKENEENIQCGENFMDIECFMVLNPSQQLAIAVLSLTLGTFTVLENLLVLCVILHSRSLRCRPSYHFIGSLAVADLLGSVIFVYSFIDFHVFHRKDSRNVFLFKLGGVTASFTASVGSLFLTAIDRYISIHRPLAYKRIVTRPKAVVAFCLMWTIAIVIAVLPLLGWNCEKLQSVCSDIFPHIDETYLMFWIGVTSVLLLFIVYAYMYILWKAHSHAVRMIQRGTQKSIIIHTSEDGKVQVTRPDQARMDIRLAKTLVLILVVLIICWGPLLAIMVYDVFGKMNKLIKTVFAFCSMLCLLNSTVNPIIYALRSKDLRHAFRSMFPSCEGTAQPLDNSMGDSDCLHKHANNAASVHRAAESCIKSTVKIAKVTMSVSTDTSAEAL

As for `CC(C)(C)c1nc2cc(S(=O)(=O)c3ccn(C(F)F)c(=O)c3)ccc2n1CC1CCOCC1` [Co. No. 83], the EC50 in test [1] (setting [3]) is 407 nM; in test [2] (setting [4]) it was 2 nM. Moreover, the “ratio CB2 agonism over CB1 agonism” value in test [2] was found to be 209.
As to `CC(C)(C)c1nc2cc([S+]([O-])c3cc[n+]([O-])cc3Br)ccc2n1CC1CCOCC1` (stereo not drawn) [Co. No. 86], the EC50 in test [1] (setting [3]) was > 10000 nM; in test [2] (setting [4]), 12 nM.
`CC(C)(C)c1nc2cc(S(=O)(=O)c3ccnc(C#N)c3)ccc2n1CC1CCOCC1` [Co. No. 93]: the EC50 in test [1] (setting [3]) was > 10000 nM; in test [2] (CB2 pEC50, hCB2-CHO-K1 cells), 1.48 nM. For the same molecule, the “ratio CB2 agonism over CB1 agonism” value in test [2] (listed as 93) is >6761.
Regarding `CC(C)(C)c1nc2cc([S+]([O-])c3cc[n+]([O-])cc3C(F)(F)F)ccc2n1CC1CCOCC1` (stereo not drawn) [Co. No. 95], the EC50 in test [1] (setting [3]) was > 10000 nM; in test [2] (setting [4]), 5.75 nM.
In the case of `CC(C)(C)c1nc2cc(S(=O)(=O)c3ccc(OCC(F)(F)F)nc3)ccc2n1CC1CCOCC1` [Co. No. 108], the EC50 was > 10000 nM in test [1] (setting [3]) and 2.57 nM in test [2] (setting [4]). Besides, the “ratio CB2 agonism over CB1 agonism” value in test [2] is reported as >3890.
Regarding `Cc1cccc(S(=O)(=O)c2ccc3c(c2)nc(C(C)(C)C)n3CC2CCOCC2)n1` [Co. No. 109], the EC50 was 263 nM in test [1] (setting [3]) and 0.813 nM in test [2] (setting [4]). Besides, the “ratio CB2 agonism over CB1 agonism” value in test [2] turned out to be 324.
For `CC(C)(C)c1nc2cc(S(=O)(=O)c3cccc(C(F)(F)F)n3)ccc2n1CC1CCOCC1` [Co. No. 110], in that order: 1050 nM, 0.55 nM and 1905.
For `COc1ncc(S(=O)(=O)c2ccc3c(c2)nc(C(C)(C)C)n3CC2CCOCC2)cn1` [Co. No. 111], in that order: 427 nM, 1.15 nM and 372.
For `CC(C)(C)c1nc2cc(S(=O)(=O)c3ccnc(F)c3)ccc2n1CC1CCCCO1` (stereo not drawn) [Co. No. 113], in that order: 794 nM, 2.63 nM and 302.
For the molecule `COc1c[n+]([O-])ccc1S(=O)(=O)c1ccc2c(c1)nc(C(C)(C)C)n2CC1CCOCC1` [Co. No. 115], the EC50 in test [1] (setting [3]) is 3630 nM; in test [2] (setting [4]), 3.72 nM.
Consider `CC(C)(C)c1nc2cc(S(=O)(=O)c3ccc(CN)nc3)ccc2n1CC1CCOCC1` [Co. No. 116], for which the figures for the EC50 in test [1] (setting [3]) and in test [2] (setting [4]) were 5750 nM and 5.89 nM, respectively. The “ratio CB2 agonism over CB1 agonism” value in test [2] is listed as 966.
Consider `CC(C)(C)c1nc2cc(S(=O)(=O)c3ccnc(C(F)(F)F)c3)ccc2n1CC1CCOCC1` [Co. No. 119], for which the results for the EC50 in test [1] (setting [3]) and in test [2] (setting [4]) were > 10000 nM and 7.08 nM, respectively. Besides, in test [2], the “ratio CB2 agonism over CB1 agonism” value was >1413.
Turning to `COc1cc(S(=O)(=O)c2ccc3c(c2)nc(C(C)(C)C)n3CC2CCC(F)(F)CC2)ccn1` [Co. No. 122], the results for the EC50 in test [1] (setting [3]) and in test [2] (setting [4]) were 100 nM and 0.977 nM, respectively. Besides, in test [2], the “ratio CB2 agonism over CB1 agonism” value is reported as 102.
For `CC(C)(C)c1nc2cc(S(=O)(=O)c3ccnc(/C=C\Cl)c3)ccc2n1CC1CCOCC1` [Co. No. 124], in that order: > 10000 nM, 14.5 nM and >692.
For `CC(C)(C)c1nc2cc(S(=O)(=O)c3ccnc(/C=C/Cl)c3)ccc2n1CC1CCOCC1` [Co. No. 125], in that order: > 10000 nM, 2.51 nM and >3981.
For `CC(C)(C)OC(=O)NCCCOc1cc(S(=O)(=O)c2ccc3c(c2)nc(C(C)(C)C)n3CC2CCOCC2)ccn1` [Co. No. 130], in that order: > 10000 nM, 2.29 nM and >4315.
For the molecule `CC(C)(C)c1nc2cc(S(=O)(=O)c3ccnc(OCCCN)c3)ccc2n1CC1CCOCC1` [Co. No. 131], the EC50 in test [1] (setting [3]) is > 10000 nM; in test [2] (setting [4]), 15.8 nM. Further, the “ratio CB2 agonism over CB1 agonism” value in test [2] is listed as >631.
For `CC(=O)NCCCOc1cc(S(=O)(=O)c2ccc3c(c2)nc(C(C)(C)C)n3CC2CCOCC2)ccn1` [Co. No. 132], in that order: > 10000 nM, 1.41 nM and >7079.
The matching figures for `CC(C)(C)c1nc2cc(S(=O)(=O)c3ccnc(OCCCN4CCOCC4)c3)ccc2n1CC1CCOCC1` [Co. No. 135]: > 10000 nM, 2.19 nM and >4571.
`CC(C)(C)c1nc2cc(S(=O)(=O)c3ccnc(F)c3)ccc2n1CC1CCC1` [Co. No. 136]: the values for the EC50 in test [1] (setting [3]) and in test [2] (setting [4]) were > 10000 nM and 0.437 nM, respectively. The “ratio CB2 agonism over CB1 agonism” value in test [2] is listed as >22734.
`Cc1[nH][n+]([O-])cc1[S+]([O-])c1ccc2c(c1)nc(C(C)(C)C)n2CC1CCOCC1` (stereo not drawn) [Co. No. 137]: the EC50 in test [1] (setting [3]) is 776 nM; in test [2] (setting [4]), 1.12 nM.
`CCCCN(C)c1cc(S(=O)(=O)c2ccc3c(c2)nc(C(C)(C)C)n3CC2CCOCC2)ccn1` [Co. No. 138]: the EC50 in test [1] (setting [3]) is 832 nM; in test [2] (setting [4]), 1.74 nM. The “ratio CB2 agonism over CB1 agonism” value in test [2] is 473.
The matching figures for `CC(C)(C)c1nc2cc(S(=O)(=O)c3ccnc(CCCCN)c3)ccc2n1CC1CCOCC1` [Co. No. 139]: > 10000 nM, 13.2 nM and >759.
As to `CC(=O)NCCCCc1cc(S(=O)(=O)c2ccc3c(c2)nc(C(C)(C)C)n3CC2CCOCC2)ccn1` [Co. No. 141], the EC50 in test [1] (setting [3]) was > 10000 nM; in test [2] (setting [4]), 5.62 nM. Further, the “ratio CB2 agonism over CB1 agonism” value in test [2] is given as >1792.
For `C=Cc1cc(S(=O)(=O)c2ccc3c(c2)nc(C(C)(C)C)n3CC2CCOCC2)ccn1` [Co. No. 142], in that order: 1350 nM, 0.955 nM and 1413.
Take `CC(=O)N1CCC(Cn2c(C(C)(C)C)nc3cc(S(=O)(=O)c4cc[n+]([O-])cc4)ccc32)CC1` [Co. No. 143]: the EC50 in test [1] (setting [3]) is > 10000 nM; in test [2] (setting [4]) it was 17 nM.
For the molecule `CC(C)(C)c1nc2cc(S(=O)(=O)c3ccnc(F)c3)ccc2n1CC1CCOC(=O)CC1` (stereo not drawn) [Co. No. 145], the EC50 in test [1] (setting [3]) is > 10000 nM; in test [2] (setting [4]), 3.24 nM. Also, the “ratio CB2 agonism over CB1 agonism” value in test [2] was >3090.
For `CCCC(C)Cn1c(C(C)(C)C)nc2cc(S(=O)(=O)c3ccnc(F)c3)ccc21` (stereo not drawn) [Co. No. 148], in that order: > 10000 nM, 0.257 nM and >38905.
The matching figures for `CC(C)(C)c1nc2cc(S(=O)(=O)c3ccnc(F)c3)ccc2n1C[C@H]1CC[C@@](C)(O)CC1` [Co. No. 153]: > 10000 nM, 0.851 nM and >11749.
`COCCCc1cc(S(=O)(=O)c2ccc3c(c2)nc(C(C)(C)C)n3CC2CCOCC2)cc[n+]1[O-]` [Co. No. 155]: the EC50 in test [1] is > 10000 nM; in test [2] (CB2 pEC50, hCB2-CHO-K1 cells) it was 2.51 nM.
In the case of `COc1ccc(CNCCc2cc(S(=O)(=O)c3ccc4c(c3)nc(C(C)(C)C)n4CC3CCOCC3)ccn2)cc1` [Co. No. 157], the EC50 is > 10000 nM in test [1] (setting [3]) and 3.47 nM in test [2] (setting [4]). In addition, the “ratio CB2 agonism over CB1 agonism” value in test [2] is on record as >2884.
